Test results: patent publication US20200329698A1, “COMPOSITIONS FOR ORGAN GRAFT PRESERVATION AND METHODS OF USE” (Nobilis Therapeutics, Inc., priority 2019, published 2020)

What was measured:
[1] = system: rat renal grafts from DBD donation or DCD donation; settings: Dex 0.1 nM in UW at 4° C., cold ischemia 24 hr, vs vehicle
Protocol: For in vivo fluorescence or DAB staining, 25-μm frozen lung sections were incubated with rabbit anti-Rip1 (1:200, SANTA CRUZ BIOTECHNOLOGY®), rabbit anti-Rip3 (1:200, SANTA CRUZ BIOTECHNOLOGY®), mouse anti-HMGB-1 (1:200, Abcam), Goat anti-TLR-4 (1:200, SANTA CRUZ BIOTECHNOLOGY®), rabbit anti-Nrf-2 (1:200, SANTA CRUZ BIOTECHNOLOGY®), mouse anti-SOD-1 (1:200, Abcam), mouse anti-NQO-1 (1:200 Abcam), rabbit anti-3-nitrotyrosine (1:200, Abcam) and rabbit anti-4-hydroxynonenal (1:200, Abcam) at 4° C. overnight. After washing with PBST, the slides were incubated with fluorochrome-conjugated secondary antibodies (MILLIPORE™, UK). For double-labelled immunofluorescence, lung samples were incubated with the first primary antibody overnight, followed by the first secondary antibody, and then the second primary antibody and the second secondary antibody. The slides were counterstained with nuclear dye DAPI and mounted with […]® Mounting Medium (Vector lab, USA). Sections were examined using an OLYMPUS™ (Watford, UK) BX4 microscope under constant exposure level. Immunofluorescence was quantified using ImageJ (National Institutes of Health, Maryland, USA) and the background was subtracted. Ten representative regions per section (in vivo) or field (in vitro) were randomly selected by an assessor blinded to the treatment groups. Values were then calculated as percentages of the mean value for naïve controls and expressed as percentage fluorescence intensity.
Lung alveolar cell death was detected by the in situ TUNEL assay (MILLIPORE™) according to the manufacturer's instructions. TUNEL nuclei were visualized by green FITC fluorescence.
(§1) A rat renal graft machine perfusion model was developed, (see FIG. 1B) to simulate the renal graft preservation process. A series of experiments were conducted using the Fischer-to-Lewis allogeneic renal transplant model. Grafts from donors after brain death (DBD) or cardiac arrest (DCD) were used. The preserving solution was saturated with dexmedetomidine at 0.1 nM[32]. The grafts were extracted and then machine-perfused with UW solution at 4° C.[18] with a flow rate of 1.5-2 ml/min [39] for 4 hours and then kept in the preserving solution until 24 hours. Grafts were then transplanted into Lewis recipient immediately following extraction (cold-ischemia 0 hr), or stored in preservative solution for 24 hr (cold-ischemia 24 hr), The orthotopic renal transplantation into Lewis recipients was conducted and their contralateral kidneys were removed at the end of surgery. The recipient received cyclosporine A (5 mg/kg/day intramuscular injection per day) for 10 days to prevent acute immune rejection.

[2] = system: rat renal grafts from DBD donation or DCD donation
Protocol: Rat renal transplantation was performed. Rat donor kidneys were transplanted orthotopically into recipients by using standard microvascular techniques. […] After the specified period of cold ischemia, the recipient's left kidney was extracted, and the donor renal vein was connected to the recipient renal vein through end-to-end anastomosis. The arterial anastomosis between the donor aortic patch was connected to the recipient aorta in an end-to-side manner. Urinary reconstruction was performed by ureter-to-bladder anastomosis. The total surgical ischemia time was restricted to <45 min. The contralateral kidney was removed immediately after engraftment.
Tumor necrosis factor-α (TNF-α) in the culture medium were detected by ELISA (Human TNF-α ELISA kits, INVITROGEN®, UK). Rat lung tissue and serum TNF-α were measured by ELISA (Rat TNF-α ELISA kits, INVITROGEN®, UK).
MTS was performed on paraffin-embedded tissue according to the manufacturer's instructions (MTS kit; SIGMA-ALDRICH®, Ltd., Poole, UK). The amount of collagen deposition (percentage of MTS-stained area) was then digitally quantified with ImageJ software (U.S. National Institutes of Health, Bethesda, Md., USA).
Blood samples were collected when the animals were euthanized. After centrifugation, serum urea and creatinine concentrations were measured with an AU2700 analyzer (OLYMPUS).
as §1
With respect to FIGS. 4A-4J, Fischer rat renal grafts from DBD donation or DCD donation were stored in UW preservative solution at 4° C., saturated with DEX for up to 24 hrs (Cold ischemia CI 24 hr), grafts harvested from donor (cold ischemia CI 0 hr) serves as control. (A and B) Serum creatinine and urea concentration were analyzed 24 hours after transplantation (n=6). (C and D) Tissue cytokine TNF-α and IL-1β concentration was assessed by ELISA. (E) TUNEL staining of renal tubules in renal cortices 24 hours after transplantation. Scale bar=50 μm. In DCD grafts, Infiltrated CD68+ macrophages (Red fluoresce; F) and renal fibrosis (blue MTS staining; G) on day 8 after transplantation were assessed. In both DCD and DBD grafts, (H) Analysis of the percentage of TUNEL+ tubular cells in renal cortices. (I) The number of CD68+ macrophage, and (J) the area of MTS staining. Data is expressed as mean±SD (n=6). […] CI: cold ischemia, Vh: Vehicle, Dex: Dexmedetomidine.

[3] = after transplantation, graft stored with Dex 0.1 nM, CI 24 hr
[4] = day 16 after surgery, graft stored with Dex 0.1 nM

## Cc1cccc([C@H](C)c2cnc[nH]2)c1C [Dexmedetomidine]
[1]
  Heme oxygenase 1 (HO-1) expression, immunofluorescence: significantly increased
  Nrf2 expression, immunofluorescence: significantly increased
  necroptosis (expression of MLKL): suppressed necroptosis
  renal graft architecture / morphology (H&E staining, injury scoring): preserved the renal graft architecture
  tissue injury in the renal cortex (TUNEL cell death staining): reduced tissue injury in the renal cortex
[2]; 24 hours after transplantation, graft stored with Dex 0.1 nM
  cell death (number of TUNEL+ cells) in renal cortices: reduced
[2]; [3]
  tissue level of cytokine IL-1β (ELISA): reduced tissue level
  tissue level of cytokine TNF-α (ELISA): reduced tissue level
[2]; day 1 (24 hours) after transplantation, graft stored with Dex 0.1 nM, CI 24 hr
  renal functional recovery (serum creatinine and urea): induced a quick functional recovery
[2]; [4]
  macrophage infiltration (number of CD68+ cells): attenuated
  renal fibrosis (MTS staining): attenuated
[2]; overall conclusion
  protection in ex vivo renal allograft from cardiac arrest donation: conferred significant protection
